Read-outs that look alike come from different tables or passages of the source.
Key:
rabbits = experiment: Influence of Dencichine for injection on the platelet count of rabbits (single-dose injection); assay type: in vivo, rabbit
[1] = Body weight of rats suffering thrombopenia induced by carboplatin; assay type: in vivo, Wistar rats
Method: 81 rats are prepared and randomly divided into eight groups: • blank control group, • high-dose group A (4 mg/kg, intraperitoneal injection, non modeling), • model group (40 mg/kg, tail vein injection), • interleukin-11 group (260 μg/kg, subcutaneous injection), • high dose group B (4 mg/kg, intraperitoneal injection, modeling), • high dose group (4 mg/kg, intraperitoneal injection), • middle dose group (1 mg/kg, intraperitoneal injection), and • low dose group (0.25 mg/kg, intraperitoneal injection),
wherein, the Model group has 11 rats, and the other groups has 10 rats respectively. Before the experiment, the animals are asked to adapt the environment for 2 days, and then blood is taken from their tails for detecting hematological index.
After administration for 10 days, blood is taken from tails of rats from blank control group, high-dose group A, and positive drug group respectively for detecting hematological index.
Thereafter, all animals, except for those of blank group and high-dose group A, are individually injected with carboplatin (40 mg/kg) for modeling, and followed by successive administration for 15 days. During these 15 days, the rats of high-dose group A and high dose group B are stopped from administration, and taken blood from the tail on 5th day, 10th day and 15th day after the modeling respectively for detecting hematological indices. After 15th day of modeling, carboplatin (40 mg/kg) is injected again for a second modeling, and all the groups take successive administration according to the foregoing method, once a day for successive 10 days. Before each hematological indices detection, animals are weighed respectively. Taking the tails' blood of rats on 5th day after the second injection of carboplatin for detecting hematological indices, and taking the tails' blood of rats on 10th day after the second injection of carboplatin for detecting the indices of hematology, reticulocytes and coagulation; and weighing animals and killing them; and weighing liver, thymus, spleen and adrenal gland taken from the dead rats, and calculating out viscera indices; further taking out marrow for doing pathological examination.

ITP model mice [2] = assay type: in vivo, BALB/C mice; details: 14 days
Source text: (§1) Health BALB/C mice (body weight 18˜22 g) are randomly divided into six groups with 12 mice for each group:
Blank group, Model group, Prednisone Acetate Group, Dencichine (high dose, middle dose, and low dose) groups.
Modeling method: blood was taken from orbital vein of BALB/C Mice, followed by EDTA-Na2 Anticoagulation, and then platelets are separated and washed. The prepared platelet suspension solution was mixed uniformly with equal amount of complete Freund's adjuvant and incomplete Freund's adjuvant respectively. In the first week, antigen containing complete Freund's adjuvant is subcutaneously injected into hind paw, back and groin of the guinea pig. Injections are done for 4 times in total, with 5 spots for each injection and 100 μl for each spot. In the 6th week, non-anticoagulated whole blood was taken from the guinea pigs, and was centrifuged for 10 min under 3000 r/min to produce a supernate, which is the anti-mouse platelet serum (GP-APS) of the guinea pigs. The supernate was placed in a water bath (56° C.) for 30 min for complement inactivation, and then the inactivated supernate was diluted with normal saline, followed by test of antibody titers by agar diffusion method, and finally was stored in a refrigerator at −20° C. for later use.
(§2) Except the normal group, the mice of the remain five groups are injected with anti-mouse platelet serum (APS) of the guinea pig with a dose of 100 μl/20 g body weight, via intraperitoneal injection, on the 1st, 3rd, 5th, 7th, 9th, 11th and 13th day of the experiment.
The mice of each group are given intragastric administration from the first day. […] The mice of the prednisone acetate group are given intragastric administration of suspension of prednisone acetate at 5 mg/(kg·d). The mice of other groups are given intragastric administration of same volumetric of normal saline at 0.2 ml/20 g body weight. Intragastric administration for once each day, and continuous administration for 14 days.
Observation of the Subcutaneous Purpura:
Class I, minor bleeding are found at injection sites, and hemorrhagic spots are interspersed at other sites;
Class II, overt bleeding are found at injection sites, and ecchymosis and petechiae are found at other sites;

ITP model mice [3] = assay type: in vivo, BALB/C mice
Method: as §1, §2
The mice of each group are given intragastric administration from the first day. The mice of the dencichine high dose, middle-dose and low dose groups are given intragastric administration at […] respectively. The mice of the prednisone acetate group are given intragastric administration of suspension of prednisone acetate at 5 mg/(kg·d). The mice of other groups are given intragastric administration of same volumetric of normal saline at 0.2 ml/20 g body weight. Intragastric administration for once each day, and continuous administration for 14 days.
20 μl Blood was collected from orbital veins of each mouse of each group before Modeling and on 14th test day respectively, and dropped into anticoagulative tubes, then platelet count was detected by an automated blood analyzers.

[4] = high dose group (6 mg/kg per Table 8) intragastric
[5] = low dose group (1.5 mg/kg per Table 8) intragastric
[6] = middle dose group (3 mg/kg) intragastric

Compound: N[C@@H](CNC(=O)C(=O)O)C(=O)O [Dencichine, β-N-oxalyl-L-α, β-diaminopropionic acid]
- PLT (rabbits; 0.04 mg/kg, 0 min): 523.3 ± 78.5 ×10^9/L
- PLT (rabbits; 0.04 mg/kg, 30 min): 451.0 ± 144.5 ×10^9/L
- PLT (rabbits; 0.04 mg/kg, 60 min): 504.0 ± 87.8 ×10^9/L
- PLT (rabbits; 0.20 mg/kg, 0 min): 574.0 ± 64.3 ×10^9/L
- PLT (rabbits; 0.20 mg/kg, 30 min): 502.3 ± 60.8 ×10^9/L
- PLT (rabbits; 0.20 mg/kg, 60 min): 518.2 ± 128.5 ×10^9/L
- PLT (rabbits; 1.00 mg/kg, 0 min): 491.2 ± 163.1 ×10^9/L
- PLT (rabbits; 1.00 mg/kg, 30 min): 526.5 ± 143.8 ×10^9/L
- PLT (rabbits; 1.00 mg/kg, 60 min): 541.0 ± 121.6 ×10^9/L
- change on the platelet count of rabbits (rabbits; single-dose injection, various doses): no obvious change
- body weight gain compared with control group ([1]; high dose group A, 4 mg/kg i.p., non modeling): slower body weight gain
- body weight ([1]; high dose group A, 4 mg/kg i.p., non modeling, 5th day after first injection of carboplatin): 303.5 ± 17.17 g
- body weight ([1]; high dose group A, 4 mg/kg i.p., non modeling, 5th day after second injection of carboplatin): 360.7 ± 24.05 g
- body weight ([1]; high dose group A, 4 mg/kg i.p., non modeling, 10th day after first injection of carboplatin): 315.0 ± 17.29 g
- body weight ([1]; high dose group A, 4 mg/kg i.p., non modeling, 10th day after second injection of carboplatin): 362.8 ± 28.63 g
- body weight ([1]; high dose group A, 4 mg/kg i.p., non modeling, 15th day after first injection of carboplatin): 342.5 ± 19.93 g
- body weight ([1]; high dose group A, 4 mg/kg i.p., non modeling, before experiment): 187.5 ± 7.37 g
- body weight ([1]; high dose group A, 4 mg/kg i.p., non modeling, prophylactic administration for 10 days): 281.1 ± 13.19 g
- body weight ([1]; high dose group B, 4 mg/kg i.p., prophylactic, modeling, 5th day after first injection of carboplatin): 289.9 ± 18.16 g
- body weight ([1]; high dose group B, 4 mg/kg i.p., prophylactic, modeling, 5th day after second injection of carboplatin): 317.8 ± 25.87 g
- body weight ([1]; high dose group B, 4 mg/kg i.p., prophylactic, modeling, 10th day after first injection of carboplatin): 308.2 ± 16.69 g
- body weight ([1]; high dose group B, 4 mg/kg i.p., prophylactic, modeling, 10th day after second injection of carboplatin): 314.7 ± 28.71 g
- body weight ([1]; high dose group B, 4 mg/kg i.p., prophylactic, modeling, 15th day after first injection of carboplatin): 318.7 ± 17.76 g
- body weight ([1]; high dose group B, 4 mg/kg i.p., prophylactic, modeling, before experiment): 187.6 ± 9.46 g
- body weight ([1]; high dose group B, 4 mg/kg i.p., prophylactic, modeling, prophylactic administration for 10 days): 284.7 ± 15.43 g
- body weight ([1]; high dose group, 4 mg/kg i.p., 5th day after first injection of carboplatin): 298.8 ± 24.10 g
- body weight ([1]; high dose group, 4 mg/kg i.p., 5th day after second injection of carboplatin): 324.6 ± 23.20 g
- body weight ([1]; high dose group, 4 mg/kg i.p., 10th day after first injection of carboplatin): 314.0 ± 27.14 g
- body weight ([1]; high dose group, 4 mg/kg i.p., 10th day after second injection of carboplatin): 316.6 ± 15.35 g
- body weight ([1]; high dose group, 4 mg/kg i.p., 15th day after first injection of carboplatin): 341.8 ± 32.01 g
- body weight ([1]; high dose group, 4 mg/kg i.p., before experiment): 188.8 ± 9.64 g
- body weight ([1]; high dose group, 4 mg/kg i.p., prophylactic administration for 10 days): 285.8 ± 20.94 g
- body weight ([1]; low dose group, 0.25 mg/kg i.p., 5th day after first injection of carboplatin): 302.6 g
- body weight ([1]; low dose group, 0.25 mg/kg i.p., 5th day after second injection of carboplatin): 325.9 g
- body weight ([1]; low dose group, 0.25 mg/kg i.p., 10th day after first injection of carboplatin): 317.2 g
- body weight ([1]; low dose group, 0.25 mg/kg i.p., 10th day after second injection of carboplatin): 325.2 g
- body weight ([1]; low dose group, 0.25 mg/kg i.p., 15th day after first injection of carboplatin): 343.2 g
- body weight ([1]; low dose group, 0.25 mg/kg i.p., before experiment): 189.6 g
- body weight ([1]; low dose group, 0.25 mg/kg i.p., prophylactic administration for 10 days): 288.7 g
- body weight ([1]; middle dose group, 1 mg/kg i.p., 5th day after first injection of carboplatin): 291.5 ± 26.18 g
- body weight ([1]; middle dose group, 1 mg/kg i.p., 5th day after second injection of carboplatin): 328.0 ± 33.38 g
- body weight ([1]; middle dose group, 1 mg/kg i.p., 10th day after first injection of carboplatin): 315.0 ± 19.28 g
- body weight ([1]; middle dose group, 1 mg/kg i.p., 10th day after second injection of carboplatin): 334.0 ± 28.15 g
- body weight ([1]; middle dose group, 1 mg/kg i.p., 15th day after first injection of carboplatin): 329.8 ± 23.77 g
- body weight ([1]; middle dose group, 1 mg/kg i.p., before experiment): 186.2 ± 11.31 g
- body weight ([1]; middle dose group, 1 mg/kg i.p., prophylactic administration for 10 days): 282.8 ± 17.29 g
- Subcutaneous purpura, bleeding degree + (ITP model mice [2]; [4]): 6 number of mice
- Subcutaneous purpura, bleeding degree ++ (ITP model mice [2]; [4]): 2 number of mice
- Subcutaneous purpura, bleeding degree +++ (ITP model mice [2]; [4]): 0 number of mice
- Subcutaneous purpura, bleeding degree − (ITP model mice [2]; [4]): 0 number of mice
- Subcutaneous purpura, bleeding degree + (ITP model mice [2]; [5]): 4 number of mice
- Subcutaneous purpura, bleeding degree ++ (ITP model mice [2]; [5]): 4 number of mice
- Subcutaneous purpura, bleeding degree +++ (ITP model mice [2]; [5]): 0 number of mice
- Subcutaneous purpura, bleeding degree − (ITP model mice [2]; [5]): 0 number of mice
- Subcutaneous purpura, bleeding degree + (ITP model mice [2]; [6]): 5 number of mice
- Subcutaneous purpura, bleeding degree ++ (ITP model mice [2]; [6]): 3 number of mice
- Subcutaneous purpura, bleeding degree +++ (ITP model mice [2]; [6]): 0 number of mice
- Subcutaneous purpura, bleeding degree − (ITP model mice [2]; [6]): 0 number of mice
- platelet count (ITP model mice [3]; high dose 6 mg/kg intragastric, Before Modeling): 751.4 ± 114.3 ×10^9/L
- platelet count (ITP model mice [3]; high dose 6 mg/kg intragastric, Day 14): 542.1 ± 95.4 ×10^9/L
- platelet count (ITP model mice [3]; low dose 1.5 mg/kg intragastric, Before Modeling): 745.1 ± 139.6 ×10^9/L
- platelet count (ITP model mice [3]; low dose 1.5 mg/kg intragastric, Day 14): 428.2 ± 75.1 ×10^9/L
- platelet count (ITP model mice [3]; middle dose 3 mg/kg intragastric, Before Modeling): 749.2 ± 147.5 ×10^9/L
- platelet count (ITP model mice [3]; middle dose 3 mg/kg intragastric, Day 14): 484.8 ± 78.4 ×10^9/L
